Columns and labels:
A549-ACE2 cells [1] = type: cell-based; settings: 5 μM, 24 hours
SARS-CoV-2 = assay: Time-of-addition experiment in Calu-3 cells, plaque assay; type: cell-based
[2] = test system: SARS-CoV-2 subgenomic replicon; type: cell-based; settings: Vero E6-TMPRSS2 cells, 24 h
[3] = cited from earlier work
A549-ACE2 cells [4] = type: cell-based

| SMILES | morphology of A549-ACE2 cells expressing 2xFYVE PI3P marker (A549-ACE2 cells [1]) | time-of-addition profile (SARS-CoV-2) | viral RNA replication, subgenomic replicon [2] | pharmacokinetic profile [3] | autolysosome number and autolysosome-to-autophagosome ratio relative to DMSO (A549-ACE2 cells [4]) |
| --- | --- | --- | --- | --- | --- |
| Cc1cccc(/C=N/Nc2cc(N3CCOCC3)nc(OCCc3ccccn3)n2)c1 [Apilimod] | cytosolic vacuolation and swelling of membrane structures | suppressed SARS-CoV-2 replication when added during the first two hpi, but not at later time points | dose-dependently increased viral RNA replication | suboptimal pharmacokinetic profile |  |
| CCN(CC)CCCC(C)Nc1ccnc2cc(Cl)ccc12 (centres unmarked) [chloroquine] |  |  |  |  | moderately reduced |
